Legend:
c-Kit = c-Kit (Homo sapiens, UniProt P10721); assay: c-Kit biochemical assay (per US 2007/0032519)
Summary of the method: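 Biochemical kinase inhibition run per US 2007/0032519; values reported as binned IC50 ranges (0.0001–1 μM, 1–10 μM, 10–200 μM).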

FLT3-ITD = molecular target: T1, FLT3-ITD (Homo sapiens, UniProt P36888); assay: FLT3-ITD biochemical kinase assay (AlphaScreen)
T1 construct: FLT3-ITD; Invitrogen #PV6190
T1 sequence (P36888 1-993): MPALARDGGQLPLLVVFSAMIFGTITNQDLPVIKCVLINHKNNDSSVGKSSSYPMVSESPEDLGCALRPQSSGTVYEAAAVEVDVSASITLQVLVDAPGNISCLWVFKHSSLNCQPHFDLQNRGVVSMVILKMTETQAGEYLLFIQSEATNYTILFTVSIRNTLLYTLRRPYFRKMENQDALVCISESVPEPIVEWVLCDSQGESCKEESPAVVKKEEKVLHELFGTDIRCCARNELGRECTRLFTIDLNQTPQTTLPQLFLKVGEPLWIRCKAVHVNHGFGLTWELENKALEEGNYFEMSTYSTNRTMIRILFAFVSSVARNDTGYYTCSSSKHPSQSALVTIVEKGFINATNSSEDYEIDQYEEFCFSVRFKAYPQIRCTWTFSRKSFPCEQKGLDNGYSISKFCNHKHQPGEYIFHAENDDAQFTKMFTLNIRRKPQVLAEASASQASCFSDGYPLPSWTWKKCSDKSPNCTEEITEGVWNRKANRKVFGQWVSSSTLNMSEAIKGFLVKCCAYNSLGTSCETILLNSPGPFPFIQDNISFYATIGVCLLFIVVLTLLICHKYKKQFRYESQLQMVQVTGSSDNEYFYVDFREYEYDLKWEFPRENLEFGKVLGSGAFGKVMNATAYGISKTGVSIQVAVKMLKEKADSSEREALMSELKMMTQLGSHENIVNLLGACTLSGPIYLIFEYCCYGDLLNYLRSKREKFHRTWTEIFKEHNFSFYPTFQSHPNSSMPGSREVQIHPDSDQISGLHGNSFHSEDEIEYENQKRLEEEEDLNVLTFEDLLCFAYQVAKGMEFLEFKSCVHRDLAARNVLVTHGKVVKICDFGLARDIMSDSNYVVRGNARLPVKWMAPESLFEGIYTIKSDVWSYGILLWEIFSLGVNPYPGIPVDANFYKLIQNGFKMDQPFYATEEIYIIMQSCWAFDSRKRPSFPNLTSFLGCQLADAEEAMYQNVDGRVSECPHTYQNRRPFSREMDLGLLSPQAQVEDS
Summary of the method: (§1)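 Read-out is AlphaScreen at 580 nm, where reduced substrate tyrosine phosphorylation lowers bead proximity signal. Reactions contain 30 nM biotinylated poly(Glu4-Tyr) and ATP at 10 μM (D835Y) or 100 μM (ITD); PY20 acceptor beads 10 μg/mL final, 60 min at room temperature before reading.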

FLT3-D835Y = molecular target: T2, FLT3-D835Y (Homo sapiens, UniProt P36888, D835Y); assay: FLT3-D835Y biochemical kinase assay (AlphaScreen)
T2 construct: purchased Invitrogen PV3967
T2 sequence (P36888 27-993 D835Y): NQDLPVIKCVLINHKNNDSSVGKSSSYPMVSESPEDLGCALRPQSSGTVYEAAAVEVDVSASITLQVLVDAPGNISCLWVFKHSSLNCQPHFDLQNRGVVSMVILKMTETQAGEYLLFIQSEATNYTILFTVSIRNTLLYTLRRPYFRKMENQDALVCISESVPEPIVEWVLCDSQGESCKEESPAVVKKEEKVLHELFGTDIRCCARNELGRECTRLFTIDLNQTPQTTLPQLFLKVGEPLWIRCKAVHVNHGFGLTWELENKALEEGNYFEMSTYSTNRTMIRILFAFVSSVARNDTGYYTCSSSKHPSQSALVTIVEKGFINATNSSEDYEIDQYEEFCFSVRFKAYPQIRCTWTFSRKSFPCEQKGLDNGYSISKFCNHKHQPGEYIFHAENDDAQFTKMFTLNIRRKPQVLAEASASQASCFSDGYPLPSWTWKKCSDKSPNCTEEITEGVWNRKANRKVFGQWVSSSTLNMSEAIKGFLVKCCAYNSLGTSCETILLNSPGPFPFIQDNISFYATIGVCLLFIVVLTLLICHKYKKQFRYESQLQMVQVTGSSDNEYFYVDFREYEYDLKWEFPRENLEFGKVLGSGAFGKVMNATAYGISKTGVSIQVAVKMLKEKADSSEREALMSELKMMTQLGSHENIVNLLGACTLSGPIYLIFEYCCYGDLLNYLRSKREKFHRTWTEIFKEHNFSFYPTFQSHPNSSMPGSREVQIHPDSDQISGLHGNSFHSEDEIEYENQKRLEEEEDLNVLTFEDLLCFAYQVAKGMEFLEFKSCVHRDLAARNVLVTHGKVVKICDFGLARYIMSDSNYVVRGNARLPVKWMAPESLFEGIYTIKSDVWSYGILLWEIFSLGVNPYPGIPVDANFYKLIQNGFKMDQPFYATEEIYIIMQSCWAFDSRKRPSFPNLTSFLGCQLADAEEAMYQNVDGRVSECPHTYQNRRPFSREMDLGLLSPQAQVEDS
Summary of the method: as §1

Sequence of c-Kit (P10721 26-976): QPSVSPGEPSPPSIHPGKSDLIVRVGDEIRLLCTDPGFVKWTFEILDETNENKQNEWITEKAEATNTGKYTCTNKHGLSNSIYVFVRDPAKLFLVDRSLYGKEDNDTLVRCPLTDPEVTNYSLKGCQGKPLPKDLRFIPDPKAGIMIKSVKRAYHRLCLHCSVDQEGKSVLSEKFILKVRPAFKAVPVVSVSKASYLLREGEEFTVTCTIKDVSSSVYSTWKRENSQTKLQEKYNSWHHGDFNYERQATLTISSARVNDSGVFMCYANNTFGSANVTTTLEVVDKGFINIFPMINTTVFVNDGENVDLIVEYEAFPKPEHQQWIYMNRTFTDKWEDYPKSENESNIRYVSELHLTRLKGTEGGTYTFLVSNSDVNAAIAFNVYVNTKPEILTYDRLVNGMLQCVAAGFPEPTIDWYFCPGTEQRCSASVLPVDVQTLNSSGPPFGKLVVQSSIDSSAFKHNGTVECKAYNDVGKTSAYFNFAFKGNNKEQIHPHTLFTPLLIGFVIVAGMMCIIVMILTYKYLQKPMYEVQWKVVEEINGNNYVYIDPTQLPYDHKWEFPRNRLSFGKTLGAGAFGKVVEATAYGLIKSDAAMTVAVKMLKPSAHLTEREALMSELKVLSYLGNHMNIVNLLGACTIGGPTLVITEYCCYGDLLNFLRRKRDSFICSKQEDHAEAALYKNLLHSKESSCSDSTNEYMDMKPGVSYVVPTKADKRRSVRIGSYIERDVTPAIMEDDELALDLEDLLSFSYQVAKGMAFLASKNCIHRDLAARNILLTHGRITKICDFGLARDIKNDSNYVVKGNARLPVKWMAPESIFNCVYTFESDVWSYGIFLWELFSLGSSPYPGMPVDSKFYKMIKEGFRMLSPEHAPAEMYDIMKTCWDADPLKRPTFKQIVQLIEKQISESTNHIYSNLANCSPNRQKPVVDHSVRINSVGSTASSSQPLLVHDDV

| SMILES | IC50 (c-Kit) [µM] | IC50 (FLT3-ITD) [µM] | IC50 (FLT3-D835Y) [µM] |
| --- | --- | --- | --- |
| CS(=O)(=O)Nc1cccc(-c2cnc3[nH]cc(-c4ccc5[nH]cnc5c4)c3n2)c1 [P-011, N-[3-[7-(1H-benzimidazol-5-yl)-5H-pyrrolo[2,3-b]pyrazin-2-yl]phenyl]methanesulfonamide] | 1 to 10 | 0.0001 to 1 | 0.0001 to 1 |
| CC(C)S(=O)(=O)Nc1cccc(-c2cnc3[nH]cc(-c4ccc5ncn(C)c5c4)c3c2)c1 [P-096, N-[3-[3-(3-methylbenzimidazol-5-yl)-1H-pyrrolo[2,3-b]pyridin-5-yl]phenyl]propane-2-sulfonamide] | 1 to 10 | 0.0001 to 1 | 0.0001 to 1 |
| COc1cccc(-c2cnc3[nH]cc(-c4ccc5ncn(C)c5c4)c3c2)c1 [P-088, 5-(3-methoxyphenyl)-3-(3-methylbenzimidazol-5-yl)-1H-pyrrolo[2,3-b]pyridine] | 1 to 10 | 0.0001 to 1 | 0.0001 to 1 |
| COc1ncc(-c2cnc3[nH]cc(-c4ccc5ncn(C(C)(C)C)c5c4)c3n2)cc1F [P-385, 7-(3-tert-butylbenzimidazol-5-yl)-2-(5-fluoro-6-methoxy-3-pyridyl)-5H-pyrrolo[2,3-b]pyrazine] | 0.0001 to 1 | 0.0001 to 1 | 0.0001 to 1 |
| COc1cc(-c2cnc3[nH]cc(-c4ccc5ncn(CC(F)(F)F)c5c4)c3n2)ccn1 [P-098, 2-(2-methoxy-4-pyridyl)-7-[3-(2,2,2-trifluoroethyl)benzimidazol-5-yl]-5H-pyrrolo[2,3-b]pyrazine] | 10 to 200 | 0.0001 to 1 | 0.0001 to 1 |
| CCCn1cnc2cc(-c3c[nH]c4ncc(OC)cc34)ccc21 [P-056, 5-methoxy-3-(1-propylbenzimidazol-5-yl)-1H-pyrrolo[2,3-b]pyridine] | 10 to 200 | 0.0001 to 1 | 0.0001 to 1 |
| c1cnc2[nH]cc(-c3ccc4[nH]nnc4c3)c2c1 [P-005, 5-(1H-pyrrolo[2,3-b]pyridin-3-yl)-1H-benzotriazole] | 10 to 200 | 1 to 10 | 10 to 200 |
| CCn1cnc2ccc(-c3c[nH]c4ncc(OC)cc34)cc21 [P-048, 1-ethyl-6-(5-methoxy-1H-pyrrolo[2,3-b]pyridin-3-yl)benzimidazole] | 10 to 200 | 0.0001 to 1 | 0.0001 to 1 |
| COc1cc(-c2cnc3[nH]cc(-c4ccc5ncn(C)c5c4)c3c2)cc(C)n1 [P-124, 5-(2-methoxy-6-methyl-4-pyridyl)-3-(3-methylbenzimidazol-5-yl)-1H-pyrrolo[2,3-b]pyridine] | 10 to 200 | 0.0001 to 1 | 0.0001 to 1 |
| COc1cnc2[nH]cc(-c3ccc4ncn(C5CCCC5)c4c3)c2c1 [P-049, 1-cyclopentyl-6-(5-methoxy-1H-pyrrolo[2,3-b]pyridin-3-yl)benzimidazole] | 1 to 10 | 0.0001 to 1 | 0.0001 to 1 |
| Cn1cnc2ccc(-c3c[nH]c4ncc(-c5cccc(N6CCCS6(=O)=O)c5)cc34)cc21 [P-093, 2-[3-[3-(3-methylbenzimidazol-5-yl)-1H-pyrrolo[2,3-b]pyridin-5-yl]phenyl]-1,2-thiazolidine 1,1-dioxide] | 1 to 10 | 0.0001 to 1 | 0.0001 to 1 |
| Cn1cnc2ccc(-c3c[nH]c4ncc(C5=CCN(C(=O)C6CC6)C5)nc34)cc21 [P-082, cyclopropyl-[3-[7-(3-methylbenzimidazol-5-yl)-5H-pyrrolo[2,3-b]pyrazin-2-yl]-2,5-dihydropyrrol-1-yl]methanone] | 1 to 10 | 0.0001 to 1 | 0.0001 to 1 |
| c1cnc2[nH]cc(-c3ccc4[nH]cnc4c3)c2c1 [P-004, 3-(1H-benzimidazol-5-yl)-1H-pyrrolo[2,3-b]pyridine] | 1 to 10 | 1 to 10 | 0.0001 to 1 |

Now from value to compound:

| IC50 (c-Kit) [µM] | IC50 (FLT3-ITD) [µM] | IC50 (FLT3-D835Y) [µM] | SMILES |
| --- | --- | --- | --- |
| 1 to 10 | 0.0001 to 1 | 0.0001 to 1 | COc1cnc2[nH]cc(-c3ccc4ncn(CC(F)(F)F)c4c3)c2c1 [P-047, 5-methoxy-3-[3-(2,2,2-trifluoroethyl)benzimidazol-5-yl]-1H-pyrrolo[2,3-b]pyridine] |
| 1 to 10 | 0.0001 to 1 | 0.0001 to 1 | Cn1cnc2ccc(-c3c[nH]c4ncc(-c5cccc(N6CCOCC6)c5)cc34)cc21 [P-095, 4-[3-[3-(3-methylbenzimidazol-5-yl)-1H-pyrrolo[2,3-b]pyridin-5-yl]phenyl]morpholine] |
| 10 to 200 | 0.0001 to 1 | 0.0001 to 1 | COc1cnc2[nH]cc(-c3ccc4[nH]nnc4c3)c2c1 [P-014, 5-(5-methoxy-1H-pyrrolo[2,3-b]pyridin-3-yl)-1H-benzotriazole] |
| 10 to 200 | 0.0001 to 1 | 1 to 10 | COc1cnc2[nH]cc(-c3ccc4[nH]c(C)nc4c3)c2c1 [P-015, 5-methoxy-3-(2-methyl-1H-benzimidazol-5-yl)-1H-pyrrolo[2,3-b]pyridine] |
| 10 to 200 | 0.0001 to 1 | 0.0001 to 1 | Cn1cnc2ccc(-c3c[nH]c4ncc(C#N)cc34)cc21 [P-020, 3-(3-methylbenzimidazol-5-yl)-1H-pyrrolo[2,3-b]pyridine-5-carbonitrile] |
| 1 to 10 | 0.0001 to 1 | 0.0001 to 1 | O=C(C1CC1)N1CC=C(c2cnc3[nH]cc(-c4ccc5[nH]cnc5c4)c3c2)CC1 [P-017, [4-[3-(1H-benzimidazol-5-yl)-1H-pyrrolo[2,3-b]pyridin-5-yl]-3,6-dihydro-2H-pyridin-1-yl]-cyclopropyl-methanone] |
| 1 to 10 | 0.0001 to 1 | 0.0001 to 1 | CS(=O)(=O)Nc1cccc(-c2cnc3[nH]cc(-c4ccc5ncn(C6CCCC6)c5c4)c3n2)c1 [P-070, N-[3-[7-(3-cyclopentylbenzimidazol-5-yl)-5H-pyrrolo[2,3-b]pyrazin-2-yl]phenyl]methanesulfonamide] |
| 1 to 10 | 0.0001 to 1 | 1 to 10 | N#Cc1cnc2[nH]cc(-c3ccc4nc[nH]c4c3)c2c1 [P-023, 3-(3H-benzimidazol-5-yl)-1H-pyrrolo[2,3-b]pyridine-5-carbonitrile] |

Source: patent publication US10160755B2 (Plexxikon Inc., priority 2015, dated 2018)
